Data on 16 compounds can be found in PubChem BioAssay AID328 (DTP/NCI, 2004).

Molecules are shown by their SMILES. Values joined by “and” are separate entries in the source; they are usually repeats but may differ in a detail not shown here. Equal entries are not always repeated. Inconclusive results and toxic doses are left out.

The experiment relates to BDF1 mice, P388 leukemia ip, median survival T/C. Put plainly: NCI In Vivo Anticancer Drug Screen. Data for tumor model P388 Leukemia (intraperitoneal) in B6D2F1 (BDF1) mice. To be noted: endpoint: median survival time, higher = longer survival. A digest of the protocol:
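Compound-treated tumour-bearing mice were compared with vehicle-treated controls. Survival was recorded, and the value is the treated-group measurement divided by the control-group measurement (T/C).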

Setting [1] is: dose: 12.5 mg/kg/injection, schedule: Q01DX009 (ip), vehicle: Klucel (hydroxypropylcellulose) (HPC).
Setting [2] is: dose: 25.0 mg/kg/injection, schedule: Q01DX009 (ip), vehicle: Klucel (hydroxypropylcellulose) (HPC).
Where [3] appears, read: dose: 100.0 mg/kg/injection, schedule: Q04DX003 (ip), vehicle: saline with Tween-80.
Setting [4] is: dose: 12.5 mg/kg/injection, schedule: Q01DX009 (ip), vehicle: saline.
Where [5] appears, read: dose: 50.0 mg/kg/injection, schedule: Q01DX009 (ip), vehicle: saline.
[6] abbreviates: dose: 50.0 mg/kg/injection, schedule: Q04DX003 (ip), vehicle: saline.
[7] abbreviates: dose: 50.0 mg/kg/injection, schedule: Q01DX009 (ip), vehicle: saline with Tween-80.
[8] abbreviates: dose: 100.0 mg/kg/injection, schedule: Q01DX009 (ip), vehicle: saline with Tween-80.
[9] abbreviates: dose: 200.0 mg/kg/injection, schedule: Q01DX009 (ip), vehicle: saline with Tween-80.

With `COC(=O)C(C(=O)OC)=C1CS(=O)(=O)C1`, the T/C runs as follows: (dose: 100.0 mg/kg/injection, schedule: Q04DX002 (ip), vehicle: saline with Tween-80) 94 % of control; (dose: 200.0 mg/kg/injection, schedule: Q04DX002 (ip), vehicle: saline with Tween-80) 101 % of control; (dose: 400.0 mg/kg/injection, schedule: Q04DX002 (ip), vehicle: saline with Tween-80) 102 % of control.

Turning to `O=S(=O)(OCC#CCOS(=O)(=O)c1ccc(Cl)c(Cl)c1)c1ccc(Cl)c(Cl)c1`, the T/C runs as follows: under setting [1], 99 % of control; under setting [2], 112 % of control; (dose: 35.0 mg/kg/injection, schedule: Q01DX009 (ip), vehicle: Klucel (hydroxypropylcellulose) (HPC)) 93 % of control; (dose: 50.0 mg/kg/injection, schedule: Q01DX009 (ip), vehicle: Klucel (hydroxypropylcellulose) (HPC)) 87 % of control; (dose: 75.0 mg/kg/injection, schedule: Q01DX009 (ip), vehicle: Klucel (hydroxypropylcellulose) (HPC)) 101 % of control.

As for `NC(Cc1c[nH]c2ccc(N(CCCl)CCCl)cc12)C(=O)O` (stereo not drawn), the T/C was 218 % of control (dose: 0.5 mg/kg/injection, schedule: Q01DX010 (ip), vehicle: saline) and 290 % of control (dose: 1.0 mg/kg/injection, schedule: Q01DX010 (ip), vehicle: saline).

Consider `O=C(O)c1cc2c3c(c1)CCCN3CCC2`, for which the T/C is 90 % of control under setting [3]; 100 % of control (dose: 200.0 mg/kg/injection, schedule: Q04DX003 (ip), vehicle: saline with Tween-80); 90 % of control (dose: 400.0 mg/kg/injection, schedule: Q04DX003 (ip), vehicle: saline with Tween-80).

Take `CCCC(N=Cc1ccccc1O)C(=O)O.CCCC(N=Cc1ccccc1O)C(=O)O.[Fe]` (stereo not drawn): the T/C runs as follows: under setting [4], 86 % of control; (dose: 25.0 mg/kg/injection, schedule: Q01DX009 (ip), vehicle: saline) 90 % of control; under setting [5], 90 % of control; under setting [6], 90 % of control.

As to `Cc1cc(O)c2c(c1)C(=O)C=CC2=O`, the T/C runs as follows: (dose: 0.12 mg/kg/injection, schedule: Q01DX009 (ip), vehicle: other) 107 % of control; (dose: 0.25 mg/kg/injection, schedule: Q01DX009 (ip), vehicle: other) 101 % of control; (dose: 0.5 mg/kg/injection, schedule: Q01DX009 (ip), vehicle: other) 117 % of control; (dose: 0.54 mg/kg/injection, schedule: Q01DX009 (ip), vehicle: alcohol) 120 % of control; (dose: 0.82 mg/kg/injection, schedule: Q01DX009 (ip), vehicle: alcohol) 110 % of control; (dose: 1.0 mg/kg/injection, schedule: Q01DX009 (ip), vehicle: other) 103 % of control. Besides, the T/C reads like this: (dose: 1.25 mg/kg/injection, schedule: Q01DX009 (ip), vehicle: alcohol) 106 % of control; (dose: 1.8 mg/kg/injection, schedule: Q01DX009 (ip), vehicle: alcohol) 102 % of control; (dose: 2.0 mg/kg/injection, schedule: Q01DX009 (ip), vehicle: other) 101 % of control; (dose: 2.5 mg/kg/injection, schedule: Q01DX009 (ip), vehicle: alcohol) 121 % of control.

In the case of `N#CO`, the T/C is 103 % of control (2×) and 113 % of control (dose: 33.0 mg/kg/injection, schedule: Q01DX009 (ip), vehicle: saline); 109 % of control (dose: 42.0 mg/kg/injection, schedule: Q01DX009 (ip), vehicle: saline); 96 % of control and 122 % of control under setting [5]; 90 % of control (dose: 56.0 mg/kg/injection, schedule: Q01DX009 (ip), vehicle: saline); 100 % of control and 121 % of control (dose: 75.0 mg/kg/injection, schedule: Q01DX009 (ip), vehicle: saline); 109 % of control (dose: 100.0 mg/kg/injection, schedule: Q01DX009 (ip), vehicle: saline).

On to `N/C(=N\OC(=O)NC(Cl)=C(Cl)Cl)c1ccc(Cl)cc1`, for which the T/C reads like this: (dose: 50.0 mg/kg/injection, schedule: Q01DX005 (ip), vehicle: saline with Tween-80) 92 % of control; (dose: 100.0 mg/kg/injection, schedule: Q01DX005 (ip), vehicle: saline with Tween-80) 114 % of control.

Consider `Cc1[nH]c(N)nc(=S)c1CCC(=O)Nc1ccc(C(=O)NC(CCC(=O)O)C(=O)O)cc1` (stereo not drawn), for which the T/C is, setting by setting: under setting [7], 91 % of control; under setting [8], 99 % of control; under setting [9], 101 % of control; (dose: 400.0 mg/kg/injection, schedule: Q01DX009 (ip), vehicle: saline with Tween-80) 106 % of control.

Take `O=C1c2ccccc2C(=O)N1N(c1ccccc1)c1ccccc1`: the T/C is 104 % of control (dose: 100.0 mg/kg/injection, schedule: Q01DX009 (ip), vehicle: Klucel (hydroxypropylcellulose) (HPC)); 110 % of control (dose: 100.0 mg/kg/injection, schedule: Q04DX003 (ip), vehicle: Klucel (hydroxypropylcellulose) (HPC)); 120 % of control (dose: 200.0 mg/kg/injection, schedule: Q04DX003 (ip), vehicle: Klucel (hydroxypropylcellulose) (HPC)); 100 % of control (dose: 400.0 mg/kg/injection, schedule: Q01DX009 (ip), vehicle: Klucel (hydroxypropylcellulose) (HPC)); 105 % of control (dose: 400.0 mg/kg/injection, schedule: Q04DX003 (ip), vehicle: Klucel (hydroxypropylcellulose) (HPC)).

As to `C[n+]1ccc(C#N)c2ccccc21`, the T/C is 92 % of control and 100 % of control (dose: 1.1 mg/kg/injection, schedule: Q04DX003 (ip), vehicle: saline); 95 % of control (dose: 1.71 mg/kg/injection, schedule: Q04DX003 (ip), vehicle: saline); 88 % of control and 95 % of control (dose: 2.5 mg/kg/injection, schedule: Q04DX003 (ip), vehicle: saline); 104 % of control (dose: 3.12 mg/kg/injection, schedule: Q01DX009 (ip), vehicle: saline); 120 % of control (dose: 3.43 mg/kg/injection, schedule: Q04DX003 (ip), vehicle: saline); 118 % of control (dose: 6.25 mg/kg/injection, schedule: Q01DX009 (ip), vehicle: saline). Also, the T/C (dose: 6.87 mg/kg/injection, schedule: Q04DX003 (ip), vehicle: saline) is 100 % of control; the T/C (dose: 7.5 mg/kg/injection, schedule: Q04DX003 (ip), vehicle: saline with Tween-80) is 91 % of control; the T/C (dose: 11.0 mg/kg/injection, schedule: Q01DX009 (ip), vehicle: saline) is 120 % of control; the T/C under setting [4] is 118 % of control; the T/C (dose: 15.0 mg/kg/injection, schedule: Q04DX003 (ip), vehicle: saline with Tween-80) is 104 % of control.

Regarding `Nc1cc2c(c(Cl)c1Br)-c1ccccc1C2=O`, the T/C by setting is: under setting [1], 90 % of control; under setting [2], 86 % of control; (dose: 100.0 mg/kg/injection, schedule: Q01DX001 (ip), vehicle: other) 86 % of control; (dose: 200.0 mg/kg/injection, schedule: Q01DX001 (ip), vehicle: other) 104 % of control; (dose: 400.0 mg/kg/injection, schedule: Q01DX001 (ip), vehicle: other) 104 % of control.

With `O=C(COc1cccc(Cl)c1)Nc1cccnc1`, the T/C (dose: 100.0 mg/kg/injection, schedule: Q01DX001 (ip), vehicle: Klucel (hydroxypropylcellulose) (HPC)) is 99 % of control and the T/C (dose: 200.0 mg/kg/injection, schedule: Q01DX001 (ip), vehicle: Klucel (hydroxypropylcellulose) (HPC)) is 99 % of control.

Consider `COC(=O)/C(C#N)=C\c1ccccc1`, for which the T/C by setting is: (dose: 50.0 mg/kg/injection, schedule: Q04DX003 (ip), vehicle: saline with Tween-80) 104 % of control; under setting [3], 109 % of control.

For `CC1(Cl)C(=O)NC(=O)C1Cl` (stereo not drawn), the T/C by setting is: (dose: 3.12 mg/kg/injection, schedule: Q04DX003 (ip), vehicle: saline) 92 % of control; (dose: 6.25 mg/kg/injection, schedule: Q04DX003 (ip), vehicle: saline) 95 % of control; (dose: 12.5 mg/kg/injection, schedule: Q04DX003 (ip), vehicle: saline) 100 % of control; (dose: 25.0 mg/kg/injection, schedule: Q04DX003 (ip), vehicle: saline) 104 % of control; under setting [6], 104 % of control; (dose: 100.0 mg/kg/injection, schedule: Q04DX003 (ip), vehicle: saline) 113 % of control.

In the case of `CN(C)c1ccc(/C=C/c2cc(N(CCO)CCO)c3ccccc3n2)cc1`, the T/C is 100 % of control under setting [7], 99 % of control under setting [8] and 91 % of control under setting [9].
